Patent US11787791B2, “Inhibitors of VAP-1” (ACUCELA INC., priority 2018, dated 2023)
Like-named read-outs stand apart in the source and are kept apart here.

Columns and labels:
Type in all cases: biochemical
[1] = target: rhVAP-1 (Homo sapiens (Human), UniProt Q16853); assay: VAP-1 fluorometric assay (Amplex Red/HRP, H2O2 from oxidative deamination of benzylamine); details: rhVAP-1, 50 μM benzylamine, 30 minutes at 37° C., pH 7.4
Protocol: The capability of compounds described herein to inhibit the enzymatic activity of vascular adhesion protein-1 (VAP-1) was determined by fluorometric assay. The assay procedure provided by R&D Systems was modified slightly for use as an inhibitor screening assay. The assay measured the H2O2 generated from the oxidative deamination of benzylamine by rhVAP-1 by converting Amplex® Red to the fluorescent product, resorufin, via horseradish peroxidase (HRP) and H2O2. Reaction buffer was 10 mM NaHCO3, pH 7.4. A standard curve was prepared by serially diluting H2O2 in reaction buffer. A 10 μM solution of resorufin was prepared in reaction buffer and was dispensed to 2 wells. These wells served as positive control for maximum fluorescence. Reaction buffer was added to the individual wells so that the final volume in each well was 100 μL. Amplex Red was diluted to 1 mM in reaction buffer. A 10 U stock of HRP was prepared in reaction buffer. A reaction cocktail was prepared by mixing equal parts 1 mM Amplex Red with 10 U HRP with 3 parts reaction buffers. The reaction cocktail was added to the appropriate wells, so that that final concentration in the well was 0.05 mM Amplex Red and 0.5 U HRP. A 200 μM solution of benzylamine was prepared in reaction buffer. Benzylamine was added to the appropriate wells so that the final concentration was 50 μM. Inhibitors were diluted in DMSO to 20× and distributed to the appropriate wells. UP-1207 served a positive control. rhVAP-1 was purchased from R&D Systems. The concentration used for each lot was determined so that the activity was equal to the first lot. […] The plate was read at […]. […]
The capability of compounds described herein to inhibit the enzymatic activity of vascular adhesion protein-1 (VAP-1) was determined by fluorometric assay. […] The assay measured the H2O2 generated from the oxidative deamination of benzylamine by rhVAP-1 by converting Amplex® Red to the fluorescent product, resorufin, via horseradish peroxidase (HRP) and H2O2. […] The plate was read at 530/35 emission and 590/35 excitation. […]

[2] = target: rhMAO-A (Homo sapiens (Human), UniProt P21397); assay: MAO-A inhibition assay (modified Promega MAO-Glo); details: substrate 10 μM, 1 hour at room temperature
Sequence of rhMAO-A (P21397 whole entry): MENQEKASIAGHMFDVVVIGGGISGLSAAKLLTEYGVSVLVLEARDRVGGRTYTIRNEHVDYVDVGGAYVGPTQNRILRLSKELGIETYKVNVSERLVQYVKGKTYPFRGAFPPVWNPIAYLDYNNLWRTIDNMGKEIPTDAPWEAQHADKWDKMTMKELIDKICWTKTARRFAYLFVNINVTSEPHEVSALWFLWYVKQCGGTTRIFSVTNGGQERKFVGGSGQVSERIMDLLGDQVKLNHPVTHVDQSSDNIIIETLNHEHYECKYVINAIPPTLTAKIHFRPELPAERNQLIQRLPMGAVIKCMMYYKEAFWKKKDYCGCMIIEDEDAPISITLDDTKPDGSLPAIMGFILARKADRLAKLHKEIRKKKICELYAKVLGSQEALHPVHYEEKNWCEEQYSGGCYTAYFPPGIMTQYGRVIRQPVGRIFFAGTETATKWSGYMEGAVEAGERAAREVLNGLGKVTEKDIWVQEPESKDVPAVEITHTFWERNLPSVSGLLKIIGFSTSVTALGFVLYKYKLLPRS
Protocol: (§1) The capability of compounds described herein to inhibit MAO was determined using a modified Promega MAO-Glo™ assay kit. The substrate ((4S)-4,5-dihydro-2-(6-hydroxybenzothiazolyl)-4-thiazolecarboxylic acid) was converted by MAO to produce methyl ester luciferin. The luciferin was then converted by luciferase to produce oxyluciferin and light. The light was measured using a luminescence setting on the plate reader. A standard curve was prepared by serially diluting luciferin in reaction buffer. The standard kit reaction buffer was used—100 mM HEPES (pH 7.5), 5% glycerol. The substrate was dispensed into the wells so that the final concentration for MAO-A inhibition assay would be 10 μM and MAO-B inhibition assay would be 1 μM. Inhibitors were diluted in DMSO to 4× and distributed to the appropriate wells. Clorgyline and Deprenyl served as positive controls. rhMAO-A and rhMAO-B were purchased from Sigma. MAO-A or MAO-B was added to the appropriate wells. The plate was incubated for 1 hour, at room temperature with gentle shaking (90 rpm). The detection agent was added at equal volume (48 μL detection agent to 48 μL reaction). The plate was incubated for 20 minutes, at room temperature with gentle shaking (90 rpm). The plate luminescence was read. Data processing was performed using Prism software.
(§2) The capability of compounds described herein to inhibit MAO was determined using a modified Promega MAO-Glo™ assay. Test compounds, substrate and enzyme were incubated per manufacturer instructions for 1 hour, at room temperature with gentle shaking (90 rpm) before addition of detection agent. The detection agent was added at equal volume (48 μL detection agent to 48 μL reaction). The plate was incubated for 20 minutes, at room temperature with gentle shaking (90 rpm). The plate luminescence was read. Data processing was performed using Prism software.

[3] = target: rhMAO-B (Homo sapiens (Human), UniProt P27338); assay: MAO-B inhibition assay (modified Promega MAO-Glo)
Sequence of rhMAO-B (P27338 whole entry): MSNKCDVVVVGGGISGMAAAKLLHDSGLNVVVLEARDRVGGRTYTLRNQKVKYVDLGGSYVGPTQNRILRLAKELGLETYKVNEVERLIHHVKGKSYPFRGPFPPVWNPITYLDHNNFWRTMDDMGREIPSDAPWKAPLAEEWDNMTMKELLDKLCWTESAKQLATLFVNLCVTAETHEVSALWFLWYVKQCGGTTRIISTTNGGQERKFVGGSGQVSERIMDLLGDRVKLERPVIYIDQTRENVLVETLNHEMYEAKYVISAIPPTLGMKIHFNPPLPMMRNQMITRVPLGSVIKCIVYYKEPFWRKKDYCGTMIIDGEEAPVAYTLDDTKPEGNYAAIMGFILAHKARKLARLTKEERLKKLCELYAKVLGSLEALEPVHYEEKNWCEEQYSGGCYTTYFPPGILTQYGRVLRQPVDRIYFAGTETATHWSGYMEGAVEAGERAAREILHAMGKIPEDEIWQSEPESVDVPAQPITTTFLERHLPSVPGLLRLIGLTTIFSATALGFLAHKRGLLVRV
Protocol: as §1, §2

[4] = rhMAO-B, substrate 1 μM, 1 hour at room temperature, read-out: MAO B IC50

Sequence of rhVAP-1 (Q16853 whole entry): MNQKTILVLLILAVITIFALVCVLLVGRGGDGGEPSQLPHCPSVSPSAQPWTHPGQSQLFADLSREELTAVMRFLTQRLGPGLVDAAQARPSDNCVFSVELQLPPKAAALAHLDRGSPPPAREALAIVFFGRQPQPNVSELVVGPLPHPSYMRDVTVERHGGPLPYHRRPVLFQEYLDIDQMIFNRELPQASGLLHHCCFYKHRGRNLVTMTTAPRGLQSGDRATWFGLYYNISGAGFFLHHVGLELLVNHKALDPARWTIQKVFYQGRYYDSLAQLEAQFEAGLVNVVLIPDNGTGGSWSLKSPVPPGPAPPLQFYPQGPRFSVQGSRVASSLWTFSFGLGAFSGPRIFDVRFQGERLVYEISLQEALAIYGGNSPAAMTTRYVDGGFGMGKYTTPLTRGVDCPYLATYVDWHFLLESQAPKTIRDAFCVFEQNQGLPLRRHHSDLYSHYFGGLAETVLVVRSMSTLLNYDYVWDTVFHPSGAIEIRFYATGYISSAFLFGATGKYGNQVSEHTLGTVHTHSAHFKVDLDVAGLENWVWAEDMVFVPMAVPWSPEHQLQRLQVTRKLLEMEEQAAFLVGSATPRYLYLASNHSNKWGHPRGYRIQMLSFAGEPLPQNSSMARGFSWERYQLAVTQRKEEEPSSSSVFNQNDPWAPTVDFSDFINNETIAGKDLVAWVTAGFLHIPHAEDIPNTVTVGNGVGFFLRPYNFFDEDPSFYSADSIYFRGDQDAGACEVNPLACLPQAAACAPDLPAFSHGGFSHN

Row | SMILES | IC50 [1] [µM] | IC50 [2] [µM] | IC50 [3] [µM] | IC50 [3, 4] [µM]
1 | CCCCn1nc2ccc(OC/C(=C\F)CN)cc2n1 [Example 66, (Z)-2-(((2-butyl-2H-benzo[d][1,2,3]triazol-5-yl)oxy)methyl)-3-fluoroprop-2-en-1-amine 4-methylbenzenesulfonate] | < 0.1 | 1 to 10 | 0.1 to 1 | –
2 | CC1CCN(c2nc3ccc(OC/C(=C/F)CN)cc3o2)C1 (stereo not drawn) [Example 30, (E)-3-fluoro-2-(((2-(3-methylpyrrolidin-1-yl)benzo[d]oxazol-6-yl)oxy)methyl)prop-2-en-1-amine 4-methylbenzenesulfonate] | < 0.1 | 10 to 30 | – | 0.1 to 1
3 | CC1CCN(c2nc3ccc(OC/C(=C\F)CN)cc3o2)C1 (stereo not drawn) [Example 42, (Z)-3-fluoro-2-(((2-(3-methylpyrrolidin-1-yl)benzo[d]oxazol-6-yl)oxy)methyl)prop-2-en-1-amine 4-methylbenzenesulfonate] | < 0.1 | 1 to 10 | – | 1 to 10
